Laboratory results reported in patent US6596720B1, “Anti-HIV compositions” (priority 1999, dated 2003).

Experiments:
MT-4 cells = test: Cytotoxicity against MT-4 cells (trypan blue exclusion); assay type: cell-based; conditions: 2 days, relative to control group
Method: (§1) Cytotoxicity Against MT-2 Cells and MT-4 Cells
(§2) MT-2 cells and MT-4 cells were transferred to RPMI 1640 medium (supplemented with 10% FCS) at 2×10^5 cells/ml. […] The cells were cultured at 37° C. Two days later, the trypan blue exclusion test was carried out and the number of living cells in each group was counted.
(§3) Relative survival rate (%), expressed as a percentage, was calculated from the number of living cells in the test drug-treated group relative to the number of living cells in the drug-free solution-treated group as a control group, by the following equation:
(§4) Relative survival rate (%)=(N3/N4)×100
(§5) in which N3 is the number of living cells in the test drug-treated group, and N4 is the number of living cells in the control group.

HIV IIIB strain [1] = test: Antiviral activity against HIV IIIB strain in MT-2 cells (fluorescent antibody assay); assay type: cell-based; conditions: MOI 0.05, 2 days
Method: (§6) Antiviral activity against HIV GUN-1 strain (Jpn. J. Cancer Res., vol. 78, 11-15(1987)) and HIV IIIB strain (Science, vol. 224, 497-500(1984)) in MT-2 cells and MT-4 cells (Nature, vol. 294, 770-771 (1981))
(§7) MT-2 cells and MT-4 cells were transferred to RPMI 1640 medium (supplemented with 10% fetal calf serum (FCS)) at 2×10^5 cells/ml. […] The cells were cultured at 37° C. One hour later, the cells were infected with HIV at multiplicity of infection of 0.05 (MOI=0.05) and cultured at 37° C. for 2 days. Smears of MT-2 cells and MT-4 cells were prepared and assayed for HIV-positive cells by fluorescent antibody assay (Science, vol. 229, 563(1985)). 3′-Azide-3′-deoxythymidine (hereinafter abbreviated as AZT) was used as a positive control.
(§8) The relative infection rate (%), expressed as a percentage, was calculated from the number of HIV-infected cells in the drug-treated group relative to the number of infected cells in the drug-free solution-treated group as a control group by the following equation:
(§9) Relative infection rate (%)=(N1/N2)×100
(§10) in which N1 is the number of HIV-positive cells in the test drug-treated group, and N2 is the number of HIV-positive cells in the control group.

HIV IIIB strain [2] = test: Antiviral activity against HIV IIIB strain in MT-4 cells (fluorescent antibody assay); assay type: cell-based; conditions: MOI 0.05, 2 days
Method: as §6, §7, §8, §9, §10

HIV GUN-1 strain [3] = test: Antiviral activity against HIV GUN-1 strain in MT-4 cells (fluorescent antibody assay); assay type: cell-based; conditions: HIV GUN-1, MT-4 cells, MOI 0.05, 2 days
Method: as §6, §7, §8, §9, §10

HIV GUN-1 strain [4] = test: Antiviral activity against HIV GUN-1 strain in MT-2 cells (fluorescent antibody assay); assay type: cell-based; conditions: HIV GUN-1, MT-2 cells, MOI 0.05, 2 days
Method: as §6, §7, §8, §9, §10

MT-2 cells = test: Cytotoxicity against MT-2 cells (trypan blue exclusion); assay type: cell-based; conditions: 2 days, relative to control group
Method: as §1, §2, §3, §4, §5

HIV GUN-1 strain [5] = test: Antiviral activity against HIV GUN-1 strain in C8166 cells (syncytia count); assay type: cell-based; conditions: HIV GUN-1, C8166 cells, MOI 0.25, 2 days
Method: Antiviral Activity Against HIV GUN-1 Strain in C8166 Cells (Salahuddinn et al., Virology, vol. 129, 51-64(1983))
C8166 cells were transferred to RPMI 1640 medium (supplemented with 10% FCS) at 2×10^5 cells/ml. […] The cells were cultured at 37° C. One hour later, the cells were infected with HIV at multiplicity of infection (MOI) of 0.25 (MOI=0.25) and cultured at 37° C. for 2 days. Then the number of syncytia induced by HIV infection was determined.
Relative infection rate (%), expressed as a percentage, was calculated from the number of HIV-infected cells in the test drug-treated group relative to the number of HIV-infected cells in the drug-free solution-treated group as a control group, by the following equation:
Relative infection rate (%)=(N5/N6)×100
in which N5 is the number of syncytia in the test drug-treated group, and N6 is the number of syncytia in the control group.

SMILES: Cc1cn([C@H]2C[C@H](N=[N+]=[N-])[C@@H](CO)O2)c(=O)[nH]c1=O [AZT, 3′-Azide-3′-deoxythymidine]
- Relative survival rate (%) (MT-4 cells; drug 10 μg/ml): 100%
- Relative survival rate (%) (MT-4 cells; drug 100 μg/ml): 100%
- Relative survival rate (%) (MT-4 cells; drug 1000 μg/ml): 84%
- Relative infection rate (%) (HIV IIIB strain [1]; drug 0.001 μg/ml): 100%
- Relative infection rate (%) (HIV IIIB strain [1]; drug 0.01 μg/ml): 20%
- Relative infection rate (%) (HIV IIIB strain [1]; drug 0.1 μg/ml): 10%
- Relative infection rate (%) (HIV IIIB strain [1]; drug 1 μg/ml): 0%
- Relative infection rate (%) (HIV IIIB strain [1]; drug 10 μg/ml): 0%
- Relative infection rate (%) (HIV IIIB strain [1]; drug 100 μg/ml): 0%
- Relative infection rate (%) (HIV IIIB strain [1]; drug 1000 μg/ml): 0%
- Relative infection rate (%) (HIV IIIB strain [2]; drug 0.001 μg/ml): 100%
- Relative infection rate (%) (HIV IIIB strain [2]; drug 0.01 μg/ml): 25%
- Relative infection rate (%) (HIV IIIB strain [2]; drug 0.1 μg/ml): 5%
- Relative infection rate (%) (HIV IIIB strain [2]; drug 1 μg/ml): 0%
- Relative infection rate (%) (HIV IIIB strain [2]; drug 10 μg/ml): 0%
- Relative infection rate (%) (HIV IIIB strain [2]; drug 100 μg/ml): 0%
- Relative infection rate (%) (HIV IIIB strain [2]; drug 1000 μg/ml): 0%
- Relative infection rate (%) (HIV GUN-1 strain [3]; drug 0.001 μg/ml): 100%
- Relative infection rate (%) (HIV GUN-1 strain [3]; drug 0.01 μg/ml): 40%
- Relative infection rate (%) (HIV GUN-1 strain [3]; drug 0.1 μg/ml): 4%
- Relative infection rate (%) (HIV GUN-1 strain [3]; drug 1 μg/ml): 0%
- Relative infection rate (%) (HIV GUN-1 strain [3]; drug 10 μg/ml): 0%
- Relative infection rate (%) (HIV GUN-1 strain [3]; drug 100 μg/ml): 0%
- Relative infection rate (%) (HIV GUN-1 strain [3]; drug 1000 μg/ml): 0%
- Relative infection rate (%) (HIV GUN-1 strain [4]; drug 0.001 μg/ml): 100%
- Relative infection rate (%) (HIV GUN-1 strain [4]; drug 0.01 μg/ml): 30%
- Relative infection rate (%) (HIV GUN-1 strain [4]; drug 0.1 μg/ml): 10%
- Relative infection rate (%) (HIV GUN-1 strain [4]; drug 1 μg/ml): 0%
- Relative infection rate (%) (HIV GUN-1 strain [4]; drug 10 μg/ml): 0%
- Relative infection rate (%) (HIV GUN-1 strain [4]; drug 100 μg/ml): 0%
- Relative infection rate (%) (HIV GUN-1 strain [4]; drug 1000 μg/ml): 0%
- Relative survival rate (%) (MT-2 cells; drug 10 μg/ml): 100%
- Relative survival rate (%) (MT-2 cells; drug 100 μg/ml): 100%
- Relative survival rate (%) (MT-2 cells; drug 1000 μg/ml): 100%

SMILES: Cl.N=C1CCCN1Cc1[nH]c(=O)[nH]c(=O)c1Cl [Compound 1, 5-Chloro-6-(2-iminopyrrolidin-1-yl)methyl-2,4(1H,3H)-pyrimidinedione Hydrochloride]
- Change of the maximum tolerated dose of FTD by compound 1 (beagle dogs; beagle dogs, FTD + compound 1 versus FTD alone): approximately tripled
- Change of the maximum tolerated dose of FTD by compound 1 (SD rats; SD rats, FTD + compound 1 versus FTD alone): approximately tripled

SMILES: O=c1[nH]c(=O)n([C@H]2C[C@H](O)[C@@H](CO)O2)cc1C(F)(F)F [FTD, trifluridine]
- Infection rate (%) (HIV GUN-1 strain [5]; FTD 0.01 μg/ml): 90%
- Infection rate (%) (HIV GUN-1 strain [5]; FTD 0.1 μg/ml): 59%
- Infection rate (%) (HIV GUN-1 strain [5]; FTD 1 μg/ml): 2%
- Infection rate (%) (HIV GUN-1 strain [5]; FTD 10 μg/ml): 0%
- Infection rate (%) (HIV GUN-1 strain [5]; FTD 100 μg/ml): 0%
- Infection rate (%) (HIV GUN-1 strain [5]; FTD 1000 μg/ml): 0%
- Maximum tolerated dose (causing no death, expressed as FTD dose) (beagle dogs; male beagle dogs, oral, repeated for 14 days, combination molar ratio FTD/compound 1=1/0.5): 6 mg/kg
- Maximum tolerated dose (causing no death, expressed as FTD dose) (SD rats; male SD rats, oral, repeated for 14 days, combination molar ratio FTD/compound 1=1/0.5): 150 mg/kg
